Data as given in patent US10780074B2, “Compounds and uses thereof” (Sunovion Pharmaceuticals Inc., priority 2017, dated 2020).
Counter-ions that a name gives are not always drawn.

System: behaviors of compound-treated mice
Test: Neuropharmacological Assay (SmartCube)
Assay type: in vivo
Settings: for minimal effective dose: Mus musculus, ip, 0.25 h, dose having 50% or more total activity in SmartCube, i.p., read-out: MED (minimal effective dose); for AD: ADHD (probability that activity matches class) / AG: analgesic (probability that activity matches class) / AX: anxiolytic (probability that activity matches class) / CE: cognitive enhancer (probability that activity matches class) / DP: anti-depressant (probability that activity matches class) / MS: mood stabilizer (probability that activity matches class) / PS: anti-psychotic (probability that activity matches class) / SD: sedative hypnotic (probability that activity matches class) / UN: uncharacterized CNS activity (probability that activity matches class): i.p. 15 min before behavioral test, most efficacious dose(s) of 3 doses
Text: Neuropharmacological Assay (SmartCube™)
Neurosci. 2011 Sep. 9; 5:103 (doi: 10.3389/fnins.2011.00103) (“Roberds”). As reported in Roberds, because psychiatric diseases generally result from disorders of cell-cell communication or circuitry, intact systems are useful in detecting improvement in disease-relevant endpoints. These endpoints are typically behavioral in nature, often requiring human observation and interpretation. To facilitate testing of multiple compounds for behavioral effects relevant to psychiatric disease, PsychoGenics, Inc. (Tarrytown, N.Y., “PGI”) developed SmartCube™, an automated system in which behaviors of compound-treated mice are captured by digital video and analyzed with computer algorithms. (D. Brunner et al., Drug Discov. Today 2002, 7:S107-S112). PGI Analytical Systems uses data from SmartCube™ to compare the behavioral signature of a test compound to a database of behavioral signatures obtained using a large set of diverse reference compounds. (The composition of the database as well as validation of the method is further described in Roberds). In this way, the neuropharmacological effects of a test compound can be predicted by similarity to major classes of compounds, such as antipsychotics, anxiolytics and antidepressants.
The SmartCube™ system produces an activity signature indicating the probability that the activity of the test compound at the administered dose matches a given class of neuropharmacological agents. (See, e.g., Roberds, FIGS. 2 and 3). The test compound is simultaneously compared against multiple classes of agents; thus, a separate probability is generated for each behavioral effect measured (e.g., anxiolytic activity, analgesic activity, etc.). In the table below, these probabilities are reported for each behavioral effect measured as follows:
Provided compounds were dissolved in a mixture of Pharmasolve™ (N-methyl-2-pyrrolidone), polyethylene glycol and propylene glycol, and were injected i.p. 15 min. before the behavioral test. For each compound, injections were administered at 3 different doses. For each behavioral effect measured, results for the most efficacious dose(s) are presented. In the table below, DP: anti-depressant; AX: anxiolytic; SD: sedative hypnotic; PS: anti-psychotic; MS: mood stabilizer; AD: ADHD; CE: cognitive enhancer; AG: analgesic; UN: uncharacterized CNS activity.
The potency of many of the compounds in the table was also determined in the SmartCube™ system. Test compounds were routinely examined at dose levels of 0.3, 1, 3 10 and 30 mg per kg (mpk), although the dose range was increased or decreased if necessary to obtain a full dose response curve. A compound's minimal effective dose (MED) is a measure of the compounds potency. The MED was defined as the dose (in mpk) having 50% or more total activity in SmartCube.

NC[C@H]1OCCc2c(-c3cncnc3)cccc21 (single isomer, unassigned) [Compound 28, hydrochloride salt]
minimal effective dose: 3 to 10 mg/kg
AD: ADHD (probability that activity matches class): ++ (5% ≤ ++ <25%)
AG: analgesic (probability that activity matches class): ++ (5% ≤ ++ <25%)
AX: anxiolytic (probability that activity matches class): ++ (5% ≤ ++ <25%)
CE: cognitive enhancer (probability that activity matches class): ++ (5% ≤ ++ <25%)
DP: anti-depressant (probability that activity matches class): +++ (25% ≤ +++ <50%)
MS: mood stabilizer (probability that activity matches class): + (LOQ ≤ + <5%)
PS: anti-psychotic (probability that activity matches class): ++ (5% ≤ ++ <25%)
SD: sedative hypnotic (probability that activity matches class): + (LOQ ≤ + <5%)
UN: uncharacterized CNS activity (probability that activity matches class): ++ (5% ≤ ++ <25%)

CNC[C@@H]1OCCc2c(-c3cncnc3)cccc21 (single isomer, unassigned) [Compound 29, hydrochloride salt]
minimal effective dose: > 30 mg/kg
AD: ADHD (probability that activity matches class): + (LOQ ≤ + <5%)
AG: analgesic (probability that activity matches class): + (LOQ ≤ + <5%)
AX: anxiolytic (probability that activity matches class): + (LOQ ≤ + <5%)
CE: cognitive enhancer (probability that activity matches class): + (LOQ ≤ + <5%)
DP: anti-depressant (probability that activity matches class): + (LOQ ≤ + <5%)
MS: mood stabilizer (probability that activity matches class): + (LOQ ≤ + <5%)
PS: anti-psychotic (probability that activity matches class): + (LOQ ≤ + <5%)
SD: sedative hypnotic (probability that activity matches class): + (LOQ ≤ + <5%)
UN: uncharacterized CNS activity (probability that activity matches class): + (LOQ ≤ + <5%)

CNC[C@H]1OCCc2c(-c3cncnc3)cccc21 (single isomer, unassigned) [Compound 30, hydrochloride salt]
minimal effective dose: 3 to 10 mg/kg
AD: ADHD (probability that activity matches class): ++ (5% ≤ ++ <25%)
AG: analgesic (probability that activity matches class): ++ (5% ≤ ++ <25%)
AX: anxiolytic (probability that activity matches class): ++ (5% ≤ ++ <25%)
CE: cognitive enhancer (probability that activity matches class): ++ (5% ≤ ++ <25%)
DP: anti-depressant (probability that activity matches class): ++++ (50% ≤ ++++)
MS: mood stabilizer (probability that activity matches class): + (LOQ ≤ + <5%)
PS: anti-psychotic (probability that activity matches class): + (LOQ ≤ + <5%)
SD: sedative hypnotic (probability that activity matches class): + (LOQ ≤ + <5%)
UN: uncharacterized CNS activity (probability that activity matches class): + (LOQ ≤ + <5%)

CNC[C@@H]1OCCc2cc(-c3cccnn3)ccc21 (single isomer, unassigned) [Compound 31, hydrochloride]
minimal effective dose: > 30 mg/kg
AD: ADHD (probability that activity matches class): + (LOQ ≤ + <5%)
AG: analgesic (probability that activity matches class): + (LOQ ≤ + <5%)
AX: anxiolytic (probability that activity matches class): ++ (5% ≤ ++ <25%)
CE: cognitive enhancer (probability that activity matches class): + (LOQ ≤ + <5%)
DP: anti-depressant (probability that activity matches class): ++ (5% ≤ ++ <25%)
MS: mood stabilizer (probability that activity matches class): + (LOQ ≤ + <5%)
PS: anti-psychotic (probability that activity matches class): + (LOQ ≤ + <5%)
SD: sedative hypnotic (probability that activity matches class): + (LOQ ≤ + <5%)
UN: uncharacterized CNS activity (probability that activity matches class): + (LOQ ≤ + <5%)

CNC[C@H]1OCCc2cc(-c3cccnn3)ccc21 (single isomer, unassigned) [Compound 32, hydrochloride]
minimal effective dose: > 30 mg/kg
AD: ADHD (probability that activity matches class): + (LOQ ≤ + <5%)
AG: analgesic (probability that activity matches class): + (LOQ ≤ + <5%)
AX: anxiolytic (probability that activity matches class): + (LOQ ≤ + <5%)
CE: cognitive enhancer (probability that activity matches class): + (LOQ ≤ + <5%)
DP: anti-depressant (probability that activity matches class): + (LOQ ≤ + <5%)
MS: mood stabilizer (probability that activity matches class): + (LOQ ≤ + <5%)
PS: anti-psychotic (probability that activity matches class): + (LOQ ≤ + <5%)
SD: sedative hypnotic (probability that activity matches class): + (LOQ ≤ + <5%)
UN: uncharacterized CNS activity (probability that activity matches class): + (LOQ ≤ + <5%)

NC[C@@H]1OCc2c(-c3ccncc3)cccc21 (single isomer, unassigned) [Compound 37, hydrochloride salt]
minimal effective dose: 10 to 30 mg/kg
AD: ADHD (probability that activity matches class): ++ (5% ≤ ++ <25%)
AG: analgesic (probability that activity matches class): ++ (5% ≤ ++ <25%)
AX: anxiolytic (probability that activity matches class): ++ (5% ≤ ++ <25%)
CE: cognitive enhancer (probability that activity matches class): + (LOQ ≤ + <5%)
DP: anti-depressant (probability that activity matches class): +++ (25% ≤ +++ <50%)
MS: mood stabilizer (probability that activity matches class): + (LOQ ≤ + <5%)
PS: anti-psychotic (probability that activity matches class): + (LOQ ≤ + <5%)
SD: sedative hypnotic (probability that activity matches class): + (LOQ ≤ + <5%)
UN: uncharacterized CNS activity (probability that activity matches class): + (LOQ ≤ + <5%)

NC[C@H]1OCc2c(-c3ccncc3)cccc21 (single isomer, unassigned) [Compound 38, hydrochloride salt]
minimal effective dose: ≤ 3 mg/kg
AD: ADHD (probability that activity matches class): ++ (5% ≤ ++ <25%)
AG: analgesic (probability that activity matches class): ++ (5% ≤ ++ <25%)
AX: anxiolytic (probability that activity matches class): +++ (25% ≤ +++ <50%)
CE: cognitive enhancer (probability that activity matches class): + (LOQ ≤ + <5%)
DP: anti-depressant (probability that activity matches class): ++++ (50% ≤ ++++)
MS: mood stabilizer (probability that activity matches class): + (LOQ ≤ + <5%)
PS: anti-psychotic (probability that activity matches class): + (LOQ ≤ + <5%)
SD: sedative hypnotic (probability that activity matches class): ++ (5% ≤ ++ <25%)
UN: uncharacterized CNS activity (probability that activity matches class): ++ (5% ≤ ++ <25%)

CNC[C@@H]1OCc2c(-c3ccncc3)cccc21 (single isomer, unassigned) [Compound 39, hydrochloride salt]
minimal effective dose: ≤ 3 mg/kg
AD: ADHD (probability that activity matches class): ++ (5% ≤ ++ <25%)
AG: analgesic (probability that activity matches class): + (LOQ ≤ + <5%)
AX: anxiolytic (probability that activity matches class): ++ (5% ≤ ++ <25%)
CE: cognitive enhancer (probability that activity matches class): + (LOQ ≤ + <5%)
DP: anti-depressant (probability that activity matches class): ++++ (50% ≤ ++++)
MS: mood stabilizer (probability that activity matches class): + (LOQ ≤ + <5%)
PS: anti-psychotic (probability that activity matches class): + (LOQ ≤ + <5%)
SD: sedative hypnotic (probability that activity matches class): ++ (5% ≤ ++ <25%)
UN: uncharacterized CNS activity (probability that activity matches class): + (LOQ ≤ + <5%)

NC[C@@H]1OCc2c(-c3ccccn3)cccc21 (single isomer, unassigned) [Compound 41]
minimal effective dose: 10 to 30 mg/kg
AD: ADHD (probability that activity matches class): + (LOQ ≤ + <5%)
AG: analgesic (probability that activity matches class): + (LOQ ≤ + <5%)
AX: anxiolytic (probability that activity matches class): ++ (5% ≤ ++ <25%)
CE: cognitive enhancer (probability that activity matches class): ++ (5% ≤ ++ <25%)
DP: anti-depressant (probability that activity matches class): ++ (5% ≤ ++ <25%)
MS: mood stabilizer (probability that activity matches class): + (LOQ ≤ + <5%)
PS: anti-psychotic (probability that activity matches class): + (LOQ ≤ + <5%)
SD: sedative hypnotic (probability that activity matches class): ++ (5% ≤ ++ <25%)
UN: uncharacterized CNS activity (probability that activity matches class): ++++ (50% ≤ ++++)

NC[C@H]1OCc2c(-c3ccccn3)cccc21 (single isomer, unassigned) [Compound 42]
minimal effective dose: 10 to 30 mg/kg
AD: ADHD (probability that activity matches class): + (LOQ ≤ + <5%)
AG: analgesic (probability that activity matches class): +++ (25% ≤ +++ <50%)
AX: anxiolytic (probability that activity matches class): ++ (5% ≤ ++ <25%)
CE: cognitive enhancer (probability that activity matches class): ++ (5% ≤ ++ <25%)
DP: anti-depressant (probability that activity matches class): ++ (5% ≤ ++ <25%)
MS: mood stabilizer (probability that activity matches class): + (LOQ ≤ + <5%)
PS: anti-psychotic (probability that activity matches class): + (LOQ ≤ + <5%)
SD: sedative hypnotic (probability that activity matches class): + (LOQ ≤ + <5%)
UN: uncharacterized CNS activity (probability that activity matches class): ++ (5% ≤ ++ <25%)

CNC[C@@H]1OCCc2c(-c3ccccn3)cccc21 (single isomer, unassigned) [Compound 43, hydrochloride salt]
minimal effective dose: 10 to 30 mg/kg
AD: ADHD (probability that activity matches class): + (LOQ ≤ + <5%)
AG: analgesic (probability that activity matches class): + (LOQ ≤ + <5%)
AX: anxiolytic (probability that activity matches class): ++ (5% ≤ ++ <25%)
CE: cognitive enhancer (probability that activity matches class): + (LOQ ≤ + <5%)
DP: anti-depressant (probability that activity matches class): ++ (5% ≤ ++ <25%)
MS: mood stabilizer (probability that activity matches class): + (LOQ ≤ + <5%)
PS: anti-psychotic (probability that activity matches class): + (LOQ ≤ + <5%)
SD: sedative hypnotic (probability that activity matches class): + (LOQ ≤ + <5%)
UN: uncharacterized CNS activity (probability that activity matches class): +++ (25% ≤ +++ <50%)
